Laboratory results published in article PMC9065575, “Synthesis, computational studies, antimycobacterial and antibacterial properties of pyrazinoic acid–isoniazid hybrid conjugates” (RSC Advances, 2019).
In brackets after ≈: the same amount, converted by molar mass. Several values for one entry are separate records, joined by “and”; a condition that tells them apart may be missing. Equal values may be shown once. Read-outs that look alike come from different tables or passages of the source.

Tests used:
[1] = tested on: M. tuberculosis Erdman strain expressing luciferase; assay: microbe, parasite or virus in culture; format: cell-based, Mycobacterium tuberculosis; settings: Mycobacterium tuberculosis, ERDMAN, 168 h; 30 μg mL^−1, pH 7.0, 7 days, vs untreated controls; read-out: Observed % growth inhibition at 30 µg/mL
Mycobacterium fortuitum = assay: microbe, parasite or virus in culture; format: cell-based; settings: Mycolicibacterium fortuitum
Mycobacterium marinum = assay: microbe, parasite or virus in culture; format: cell-based; settings: clinical isolate, read-out: Minimum inhibitory concentration (MIC) M. marinum
Mycobacterium bovis = assay: microbe, parasite or virus in culture; format: cell-based; settings: Mycobacterium tuberculosis variant bovis, read-out: Minimum inhibitory concentration (MIC) M. bovis
Enterococcus faecalis = assay: Aerobic antibacterial MIC, standard dilution technique; format: cell-based; settings: Enterococcus faecalis, clinical isolate; value in parentheses; read-out: Minimum inhibitory concentration (MIC) Enterococcus faecalis
Source text: Antibacterial properties were investigated for the synthesized compounds against a variety of Gram-positive (Staphylococcus aureus, Enterococcus faecalis) and Gram-negative (Klebsiella pneumonia, Proteus vulgaris, Pseudomonas aeruginosa) clinical isolate bacteria utilizing the standard technique.[21]

[2] = tested on: RPE1 (normal human immortalized retinal epithelial) cell line; assay: Antiproliferative properties by MTT technique; format: cell-based; settings: RPE1 cells, 100 μM
Experimental: Antiproliferative properties of the synthesized compounds were screened against RPE1 (normal human immortalized retinal epithelial) cell line to determine the toxicity/selectivity towards normal cell by the standard MTT technique.[23]
Antiproliferative properties of the synthesized compounds were tested against RPE1 (normal human immortalized retinal epithelial) cell line at 100 μM to determine the toxicity/selectivity towards normal cell by the standard MTT technique.[23]

[3] = clinical isolate, observed MIC, read-out: Minimum inhibitory concentration (MIC) M. fortuitum
[4] = clinical isolate, read-out: Minimum inhibitory concentration (MIC) M. fortuitum

CC(C)[C@H](NC(=O)c1cnccn1)C(=O)O [10b, (Pyrazine-2-carbonyl)-L-valine] gave an inhibition at 30 µg/mL [1] of 91%, a melting point of 160 to 162 °C and an MIC (Mycobacterium fortuitum; [3]) of over 89.6 µM. The MIC (Mycobacterium fortuitum; [4]) was over 20 µg/mL, the MIC (Mycobacterium marinum; observed MIC) was over 89.6 µM and the MIC (Mycobacterium marinum) was over 20 µg/mL. For the same compound, the MIC (Mycobacterium bovis) was > 20 µg/mL and > 89.6 µM, the MIC (Enterococcus faecalis) was 0.13 µM (≈ 0.029 µg/mL) and the “Percentage of cell proliferation ± SD” value [2] was 82.1 ± 3.0%.

In the case of CC(C)[C@H](NC(=O)c1cnccn1)C(=O)NNC(=O)c1ccncc1 [12b, (S)-N-(1-(2-Isonicotinoylhydrazineyl)-3-methyl-1-oxobutan-2-yl)pyrazine-2-carboxamide], the inhibition at 30 µg/mL [1] is reported as 84.2%, the melting point is reported as 175 to 177 °C and the MIC (Mycobacterium fortuitum; M. fortuitum, observed values listed with the BMLR-QSAR model, read-out: Observed MIC (Table S6)) is reported as 58400 µM. The MIC (Mycobacterium fortuitum; [3]) was 58.4 µM, the MIC (Mycobacterium fortuitum; [4]) was 20 µg/mL and the MIC (Mycobacterium marinum; observed MIC) was 58.4 µM. The MIC (Mycobacterium marinum) was 20 µg/mL, the MIC (Mycobacterium bovis) was > 20 µg/mL and > 58.4 µM and the MIC (Enterococcus faecalis) was 0.33 µM (≈ 0.113 µg/mL). For the same compound, the “Percentage of cell proliferation ± SD” value [2] was 96.4 ± 2.7%.
